Laboratory results taken from ChEMBL document CHEMBL3045817, “Magnetic resonance assays of haloperidol in human serum albumin” (Med Chem Res, 2011).
Blank lines part the entries; values can stand above or below the molecule they belong to.

Columns and labels:
[1] = Plasma protein binding in Homo sapiens (human); assay type: ADME, cell-free; settings: read-out: PPB (converted)
[2] = Bioavailability in Homo sapiens (human) at 2.5 mg, intranasal after 15 min; assay type: ADME, organism-based; settings: in vivo, inhaled or intranasal
[3] = Bioavailability in Homo sapiens (human) at 2.5 mg, intramuscular after 15 min; assay type: ADME, organism-based; settings: in vivo, im
Brain = test: Drug uptake in healthy Homo sapiens (human) brain by NMR analysis; assay type: ADME, tissue-based
Albumin = Albumin (Homo sapiens, UniProt P02768); test: Binding affinity to Homo sapiens (human) serum albumin at 1.5 to 800 ug/ml by NMR analysis; assay type: ADME; settings: isolated protein
[4] = Drug uptake in depression pateint brain at 20 mg/day after 3 days by NMR analysis; assay type: ADME; settings: human, read-out: Drug uptake

Sequence of Albumin (P02768 whole entry): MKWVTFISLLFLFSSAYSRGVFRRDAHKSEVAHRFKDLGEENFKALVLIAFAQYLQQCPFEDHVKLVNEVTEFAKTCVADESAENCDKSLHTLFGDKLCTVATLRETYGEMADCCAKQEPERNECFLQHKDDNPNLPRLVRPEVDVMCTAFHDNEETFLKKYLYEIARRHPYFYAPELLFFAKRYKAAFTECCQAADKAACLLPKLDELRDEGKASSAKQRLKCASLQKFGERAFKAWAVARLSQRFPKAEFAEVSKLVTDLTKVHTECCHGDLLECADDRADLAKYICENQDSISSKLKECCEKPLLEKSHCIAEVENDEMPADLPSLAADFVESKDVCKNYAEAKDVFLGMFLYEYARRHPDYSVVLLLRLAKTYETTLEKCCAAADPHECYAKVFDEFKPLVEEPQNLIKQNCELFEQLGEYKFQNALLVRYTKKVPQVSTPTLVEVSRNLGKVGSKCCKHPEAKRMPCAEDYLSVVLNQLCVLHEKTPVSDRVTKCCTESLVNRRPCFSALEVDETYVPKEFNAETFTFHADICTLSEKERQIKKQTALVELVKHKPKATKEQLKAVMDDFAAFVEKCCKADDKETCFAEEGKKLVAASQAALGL

SMILES: CN1CCN(CCCN2c3ccccc3Sc3ccc(C(F)(F)F)cc32)CC1 [TRIFLUOPERAZINE]
- Drug uptake (Brain): 4 µg/mL

SMILES: Fc1ccc([C@@H]2CCNC[C@H]2COc2ccc3c(c2)OCO3)cc1 [PAROXETINE]
- concentration at 72 h [4]: 6000 ng/mL

SMILES: OCCN1CCN(CCCN2c3ccccc3Sc3ccc(C(F)(F)F)cc32)CC1 [FLUPHENAZINE]
- Drug uptake (Brain): 4 µg/mL

Continued, values first:

- fraction unbound [1]: 0.1
- bioavailability [2]: 63.8%
- bioavailability [3]: 48.6%
SMILES: O=C(CCCN1CCC(O)(c2ccc(Cl)cc2)CC1)c1ccc(F)cc1 [HALOPERIDOL]

- Activity (Albumin): Active
SMILES: O=C(CCCN1CCC(O)(c2ccc(Cl)cc2)CC1)c1ccc([19F])cc1 [[19F]-HALOPERIDOL]
